From patent publication US9682980B2, “Positive allosteric modulators of mGluR2” (BRISTOL-MYERS SQUIBB COMPANY, priority 2012, dated 2017) come the findings set out here.

One may read the EC50 as the midpoint of the concentration-response curve. The low end stands for higher potency in that assay, the high end for lower potency in that assay.

The test deals with human mGluR2 (Homo sapiens (Human), UniProt Q14416). Description: MGluR2 cAMP assay. In kind it is cell-based. The note with it: HEK293 cells clonally expressing human mGluR2, 1 μM forskolin, 1 μM LY-341495. The procedure: Clonally expressed human mGluR2 in HEK293 background was glutamate starved overnight in media without glutamine (GIBCO MEM 12360), containing 10% FBS, 1% penicillin streptomycin.
human mGluR2, sequence (Q14416 19-872): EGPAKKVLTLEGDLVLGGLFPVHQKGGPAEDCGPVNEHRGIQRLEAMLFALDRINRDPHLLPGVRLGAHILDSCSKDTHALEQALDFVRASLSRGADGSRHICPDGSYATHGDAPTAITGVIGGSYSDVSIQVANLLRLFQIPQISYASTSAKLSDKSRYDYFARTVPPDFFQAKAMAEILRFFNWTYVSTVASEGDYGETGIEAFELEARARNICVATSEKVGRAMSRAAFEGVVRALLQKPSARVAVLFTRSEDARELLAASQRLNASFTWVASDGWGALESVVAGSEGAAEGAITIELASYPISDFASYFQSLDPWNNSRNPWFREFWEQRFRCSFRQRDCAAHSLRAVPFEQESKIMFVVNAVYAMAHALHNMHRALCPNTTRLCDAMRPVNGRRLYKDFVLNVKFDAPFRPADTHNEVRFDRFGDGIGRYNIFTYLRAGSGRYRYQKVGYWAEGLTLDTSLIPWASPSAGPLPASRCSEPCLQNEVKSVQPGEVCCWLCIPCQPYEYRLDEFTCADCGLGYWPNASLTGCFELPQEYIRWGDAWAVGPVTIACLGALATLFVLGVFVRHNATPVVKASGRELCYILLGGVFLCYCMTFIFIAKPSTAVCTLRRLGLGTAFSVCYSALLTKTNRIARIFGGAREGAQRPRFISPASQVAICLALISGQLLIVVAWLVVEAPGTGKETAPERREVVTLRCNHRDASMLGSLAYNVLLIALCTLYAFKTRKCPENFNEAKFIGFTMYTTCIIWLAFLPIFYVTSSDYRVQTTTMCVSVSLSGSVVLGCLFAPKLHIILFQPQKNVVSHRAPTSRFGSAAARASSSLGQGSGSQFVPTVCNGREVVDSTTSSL
On the day of the assay, media was removed, cells washed with PBS, cells harvested and pelleted by centrifugation. Cell pellets were resuspended in stimulation buffer without forskolin and counted. A solution of 1.25×10^6 cells/ml was prepared and dispensed to plates using a Combi liquid handler (Thermo). A standard curve was created using a top concentration of cAMP of 1 μM in the stimulation buffer, 1:3 dilutions over 14 points in the absence of cells. Plates were read by time-resolved fluorescence at […] and a ratio was calculated via in house software, (665 nM/618 nM)*10^4. In house software converted the fluorescence value ratios to units of cAMP concentration, which is then used to calculate % inhibition for each test compound.
Compounds were added to white, standard volume 384 non-binding surface plates (Corning 3574). Cells were resuspended in stimulation buffer consisting of Hanks Balanced Salt Solution (14175-095) pH 7.0, 20 mM HEPES, 2.0 mM CaCl2, 5.0 mM MgCl2, and 1 mM IBMX (Sigma 15879), 1 μM forskolin, and 1 μM LY-341495, for 30 minutes. Buffer without forskolin was used as a negative control. Solutions of D2 and cryptate detection reagents from the CISBIO dynamic cAMP kit (62AM4PEJ) were diluted 1:40 in lysis buffer. Lysis buffer consisted of 50 mM Phosphate Buffer pH 7.0, 800 mM Potassium Fluoride, 0.2% BSA, and 1.0% Triton. Assay reaction was terminated by addition of detection reagents in lysis buffer. One hour later, plates were read on a PE Viewlux. Data was extracted, and concentration response curves generated by fitting the data to a standard 4 parameter logistic equation from which EC50 values were determined See table 1: A: <10 nM; B: 10-100 nM; C: 100-1000 nM; D: 1000-10000 nM.
(In general: Changes in cAMP serve as a functional read-out for many G protein-coupled receptors.)

Turning to `COC(=O)c1ccccc1C1CCN(c2cnn3c(CC4CC4)nnc3c2Cl)CC1` [Example 31, Methyl 2-(1-(8-chloro-3-(cyclopropylmethyl)-[1,2,4]triazolo[4,3-b]pyridazin-7-yl)piperidin-4-yl)benzoate], the EC50 was determined as 38 nM.

For the compound `COC(=O)c1ccccc1C1CCN(c2cnn3c(CC(F)(F)F)nnc3c2Cl)CC1` [Example 32, Methyl 2-(1-(8-chloro-3-(2,2,2-trifluoroethyl)-[1,2,4]triazolo[4,3-b]pyridazin-7-yl)piperidin-4-yl)benzoate], a half-maximal response (EC50) required 15 nM.

Turning to `Clc1c(NCC2Cc3ccccc3C2)cnn2c(CC3CC3)nnc12` [Example 33, 8-Chloro-3-(cyclopropylmethyl)-N-((2,3-dihydro-1H-inden-2-yl)methyl)-[1,2,4]triazolo[4,3-b]pyridazin-7-amine], the EC50 is 21 nM.

Compound `COc1cccc(F)c1C1CCN(c2cc3nnc(CC4CC4)n3cn2)CC1` [Example 34, 3-(Cyclopropylmethyl)-7-(4-(2-fluoro-6-methoxyphenyl)piperidin-1-yl)-[1,2,4]triazolo[4,3-c]pyrimidine] gave an EC50 of 649 nM.

`COc1ccc(OC)c(C2CCN(c3cnn4c(CC5CC5)nnc4c3Cl)CC2)c1` [Example 35, 8-Chloro-3-(cyclopropylmethyl)-7-(4-(2,5-dimethoxyphenyl)piperidin-1-yl)-[1,2,4]triazolo[4,3-b]pyridazine] registered an EC50 of 6 nM.

For `COc1ccc(OC)c(C2CCN(c3cnn4c(CC(F)(F)F)nnc4c3Cl)CC2)c1` [Example 36, 8-Chloro-7-(4-(2,5-dimethoxyphenyl)piperidin-1-yl)-3-(2,2,2-trifluoroethyl)-[1,2,4]triazolo[4,3-b]pyridazine], the EC50 worked out at 7 nM. This EC50 and that of the compound before are within 1.5-fold of each other.

The compound `COc1ccc(C2CCN(c3cnn4c(CC5CC5)nnc4c3Cl)CC2)c(OC)c1` [Example 37, 8-Chloro-3-(cyclopropylmethyl)-7-(4-(2,4-dimethoxyphenyl)piperidin-1-yl)-[1,2,4]triazolo[4,3-b]pyridazine] displayed an EC50 of 9 nM. The EC50 values of the last two compounds are within 1.5-fold of each other.

`COc1ccc(C2CCN(c3cnn4c(CC(F)(F)F)nnc4c3Cl)CC2)c(OC)c1` [Example 38, 8-Chloro-7-(4-(2,4-dimethoxyphenyl)piperidin-1-yl)-3-(2,2,2-trifluoroethyl)-[1,2,4]triazolo[4,3-b]pyridazine] gave an EC50 of 5 nM.

Consider `COc1cccc(F)c1C1CC1CNc1cnn2c(CC3CC3)nnc2c1Cl` (stereo not drawn) [Example 39, 8-Chloro-3-(cyclopropylmethyl)-N-((2-(2-fluoro-6-methoxyphenyl)cyclopropyl)methyl)-[1,2,4]triazolo[4,3-b]pyridazin-7-amine], for which the midpoint of the response, the EC50, lay at 28 nM.

On to `COc1cccc(F)c1C1CC1CNc1cnn2c(CC(F)(F)F)nnc2c1Cl` (stereo not drawn) [Example 40, 8-Chloro-N-((2-(2-fluoro-6-methoxyphenyl)cyclopropyl)methyl)-3-(2,2,2-trifluoroethyl)-[1,2,4]triazolo[4,3-b]pyridazin-7-amine], for which the EC50 is 31 nM. This EC50 and that of the compound before are within 1.5-fold of each other.

The compound `Clc1c(N2CCC(c3ccncc3)CC2)cnn2c(CC3CC3)nnc12` [Example 41, 8-Chloro-3-(cyclopropylmethyl)-7-(4-(pyridin-4-yl)piperidin-1-yl)-[1,2,4]triazolo[4,3-b]pyridazine] came in with an EC50 of 275 nM.

In the case of `COc1cc(OC)nc(C2CCN(c3cnn4c(CC5CC5)nnc4c3Cl)CC2)n1` [Example 42, 8-Chloro-3-(cyclopropylmethyl)-7-(4-(4,6-dimethoxypyrimidin-2-yl)piperidin-1-yl)-[1,2,4]triazolo[4,3-b]pyridazine], the midpoint of the response, the EC50, lay at 11 nM.

On to `COc1cc(OC)nc(C2CCN(c3cnn4c(CC(F)(F)F)nnc4c3Cl)CC2)n1` [Example 43, 8-Chloro-7-(4-(4,6-dimethoxypyrimidin-2-yl)piperidin-1-yl)-3-(2,2,2-trifluoroethyl)-[1,2,4]triazolo[4,3-b]pyridazine], for which the EC50 is 10 nM. The EC50 values of the last two compounds are within 1.5-fold of each other.

As for `Clc1ccccc1C1CCN(c2cnn3c(CC4CC4)nnc3c2Cl)CC1` [Example 44, 8-Chloro-7-(4-(2-chlorophenyl)piperidin-1-yl)-3-(cyclopropylmethyl)-[1,2,4]triazolo[4,3-b]pyridazine], a half-maximal effect (EC50) was put at 45 nM.

For the compound `FC(F)(F)Cc1nnc2c(Cl)c(N3CCC(c4ccccc4Cl)CC3)cnn12` [Example 45, 8-Chloro-7-(4-(2-chlorophenyl)piperidin-1-yl)-3-(2,2,2-trifluoroethyl)-[1,2,4]triazolo[4,3-b]pyridazine], the EC50 was 48 nM.

In turn, `Clc1cccc(C2CCN(c3cnn4c(CC5CC5)nnc4c3Cl)CC2)c1Cl` [Example 46, 8-Chloro-3-(cyclopropylmethyl)-7-(4-(2,3-dichlorophenyl)piperidin-1-yl)-[1,2,4]triazolo[4,3-b]pyridazine] showed an EC50 of 154 nM.

Compound `Clc1cc(Cl)cc(C2CCN(c3cnn4c(CC5CC5)nnc4c3Cl)CC2)c1` [Example 47, 8-Chloro-3-(cyclopropylmethyl)-7-(4-(3,5-dichlorophenyl)piperidin-1-yl)-[1,2,4]triazolo[4,3-b]pyridazine] gave an EC50 of 144 nM.

Consider `FC(F)(F)Cc1nnc2c(Cl)c(N3CCC(c4cc(Cl)cc(Cl)c4)CC3)cnn12` [Example 48, 8-Chloro-7-(4-(3,5-dichlorophenyl)piperidin-1-yl)-3-(2,2,2-trifluoroethyl)-[1,2,4]triazolo[4,3-b]pyridazine], for which the EC50 was 263 nM. Against the preceding compound, the EC50 is about 1.8-fold higher.

As for `CCN(CC1CC1c1ccc(F)cc1)c1cnn2c(CC3CC3)nnc2c1Cl` (stereo not drawn) [Example 49, 8-Chloro-3-(cyclopropylmethyl)-N-ethyl-N-((2-(4-fluorophenyl)cyclopropyl)methyl)-[1,2,4]triazolo[4,3-b]pyridazin-7-amine], a half-maximal response (EC50) required 425 nM.

On to `Fc1ccc(F)c(C2CCN(c3cnn4c(CC5CC5)nnc4c3Cl)CC2)c1OC(F)F` [Example 50, 8-Chloro-3-(cyclopropylmethyl)-7-(4-(2-(difluoromethoxy)-3,6-difluorophenyl)piperidin-1-yl)-[1,2,4]triazolo[4,3-b]pyridazine], for which the EC50 amounted to 2 nM.

Consider `Fc1ccc(F)c(C2CCN(c3cnn4c(CC(F)(F)F)nnc4c3Cl)CC2)c1OC(F)F` [Example 51, 8-Chloro-7-(4-(2-(difluoromethoxy)-3,6-difluorophenyl)piperidin-1-yl)-3-(2,2,2-trifluoroethyl)-[1,2,4]triazolo[4,3-b]pyridazine], for which the EC50 was 3 nM. This EC50 lies about 1.5-fold higher than the previous one.

For `Fc1cc(OC(F)F)c(C2CCN(c3cnn4c(CC5CC5)nnc4c3Cl)CC2)cc1F` [Example 52, 8-Chloro-3-(cyclopropylmethyl)-7-(4-(2-(difluoromethoxy)-4,5-difluorophenyl)piperidin-1-yl)-[1,2,4]triazolo[4,3-b]pyridazine], the EC50 turned out to be 8 nM.

In turn, `Fc1cc(OC(F)F)c(C2CCN(c3cnn4c(CC(F)(F)F)nnc4c3Cl)CC2)cc1F` [Example 53, 8-Chloro-7-(4-(2-(difluoromethoxy)-4,5-difluorophenyl)piperidin-1-yl)-3-(2,2,2-trifluoroethyl)-[1,2,4]triazolo[4,3-b]pyridazine] displayed an EC50 of 6 nM.

Regarding `Fc1cc(F)c(OC(F)F)c(C2CCN(c3cnn4c(CC5CC5)nnc4c3Cl)CC2)c1` [Example 54, 8-Chloro-3-(cyclopropylmethyl)-7-(4-(2-(difluoromethoxy)-3,5-difluorophenyl)piperidin-1-yl)-[1,2,4]triazolo[4,3-b]pyridazine], the EC50 was determined as 10 nM.
